Assay results published in patent US20250059474A1, “Liquid formulation comprising an alcohol and highly water soluble manganese complex salt catalyst, bleaching formulation and cleaning agent comprising the same” (Catexel GmbH, priority 2023, published 2025).
Read-outs that look alike come from different tables or passages of the source. Each block holds one compound with its values, some of them ahead of it.

How the values were obtained:
[1] = Stability of PVOH pouches containing solvents; settings: 26 weeks at 40° C. then 26 weeks at room temperature
Procedure: In small pouches made from a standard PVOH film, different solvents were added (1 mL), the pouch was sealed using a hot plate (150° C.). The pouches containing the solvent were stored for 26 weeks at 40° C. and then for 26 weeks at room temperature.

[2] = Solubility in water at 20° C.; format: physicochemical
[3] = Dissolution and storage stability of MnTACN salts in various solvents; format: physicochemical
Procedure: Dissolution of MnTACN-PF6 catalyst in various solvents was performed. First a screening was done in which solvents the PF6 salt of the MnTACN catalyst could be dissolved.

[4] = Dishwash machine tea-stain cleaning experiments; settings: 0 = no cleaning, 100 = complete removal
Procedure: A standard dishwash machine tablet was prepared using the same ingredients as disclosed in WO2022/058039 (Weylchem Performance Products GmbH). Together with each tablet (14 g) on top, either no catalyst was added (blank), 100 mg of Weylclean® FDO X (uncoated granules containing 2 wt-% of MnTACN-PF6 (comparative)) was added, or 82 mg of dipropylene glycol containing 1.64 mg of dissolved MnTACN-SO4 (Exp low MnTACN-SO4) or 100 mg of dipropylene glycol containing 2 mg of dissolved MnTACN-SO4 (Exp high MnTACN-SO4).

[5] = Dowanol PM with 3 wt % citric acid
[6] = dipropylene glycol with 3 wt % of nitric acid
[7] = dipropylene glycol with 3 wt % sulfuric acid
[8] = propylene glycol, no acids added

stability of PVOH pouches containing the solvent ([1]; solvent without acid, 1 mL): good stability
SMILES: COC(C)COC(C)CO (stereo not drawn) [Dowanol DPM, dipropylene glycol methyl ether]

stability of PVOH pouches containing the solvent ([1]; solvent with 3 wt % H2SO4): not stable
stability of PVOH pouches containing the solvent ([1]; solvent with 3 wt % HNO3): good stability
stability of PVOH pouches containing the solvent ([1]; solvent with 3 wt % citric acid): not stable
stability of PVOH pouches containing the solvent ([1]; solvent without acid, 1 mL): not stable
SMILES: COCC(C)O (stereo not drawn) [Dowanol PM, propylene glycol methyl ether]

solubility in water [2]: greater than 182 g/L
solubility in water ([2]; equated from g/L): > 18.2 wt %
solubility in solvent ([3]; dipropylene glycol, had to be heated): dissolved
SMILES: CN1CCN(C)CCN(C)CC1.CN1CCN(C)CCN(C)CC1.O.O.O.[Cl-].[Cl-].[Mn+4].[Mn+4].[O-2].[O-2].[O-2] [MnTACN-Cl2, [Mn^IV2(μ-O)3(Me3-TACN)2]Cl2*3H2O]

solubility in water [2]: greater than 283 g/L
solubility in water ([2]; equated from g/L): > 28.3 wt %
solubility and stability in solvent [3, 5]: good solubility and stability
solubility and stability in solvent ([3]; Dowanol PM with sulfuric acid): good solubility and stability
solubility and stability in solvent ([3]; Dowanol PM without acid): good solubility and stability
solubility and stability in solvent ([3]; dipropylene glycol): good solubility and stability
solubility and stability in solvent [3, 6]: good solubility and stability
solubility and stability in solvent [3, 7]: good solubility and stability
solubility and stability in solvent [3, 8]: good solubility and stability
SMILES: CN1CCN(C)CCN(C)CC1.CN1CCN(C)CCN(C)CC1.O=[N+]([O-])[O-].O=[N+]([O-])[O-].[Mn+4].[Mn+4].[O-2].[O-2].[O-2] [MnTACN-NO3, [Mn^IV2(μ-O)3(Me3-TACN)2](NO3)2]

solubility in water [2]: 10.8 g/L
solubility in solvent ([3]; 1,3-propanol-diol): Poor solubility
solubility in solvent ([3]; 1-hexanol): Poor solubility
solubility in solvent ([3]; 1-propanol): Poor solubility
solubility in solvent ([3]; 2-ethyl-1-hexanol): Poor solubility
solubility in solvent ([3]; 2-propanol): Poor solubility
solubility in solvent ([3]; Dowanol DPM): Poor solubility
solubility and stability in solvent ([3]; Dowanol PM without acid): Poor solubility
solubility in solvent ([3]; acetonitrile): dissolved very well
solubility and stability in solvent ([3]; dipropylene glycol): Poor solubility
solubility in solvent ([3]; ethanol (abs)): Poor solubility
solubility in solvent ([3]; ethyl acetate): Poor solubility
solubility in solvent ([3]; ethylene glycol, after heating): dissolved
solubility in solvent ([3]; formic acid): well soluble
stability (appearance) in solution ([3]; formic acid): turned brown
SMILES: CN1CCN(C)CCN(C)CC1.CN1CCN(C)CCN(C)CC1.F[P-](F)(F)(F)(F)F.F[P-](F)(F)(F)(F)F.O.[Mn+4].[Mn+4].[O-2].[O-2].[O-2] [MnTACN-PF6, [Mn^IV2(μ-O)3(Me3-TACN)2](PF6)2*H2O, reference compound]

solubility in water [2]: greater than 735 g/L
solubility in water ([2]; equated from g/L): > 73.5 wt %
solubility and stability in solvent [3, 5]: good solubility and stability
solubility and stability in solvent ([3]; Dowanol PM with nitric acid): poor solubility
solubility and stability in solvent ([3]; Dowanol PM with sulfuric acid): poor solubility
solubility and stability in solvent ([3]; Dowanol PM without acid): good solubility and stability
solubility and stability in solvent ([3]; dipropylene glycol): good solubility and stability
solubility and stability in solvent ([3]; dipropylene glycol with 3 wt % citric acid): good solubility and stability
solubility and stability in solvent [3, 6]: precipitation
solubility and stability in solvent [3, 7]: precipitation
solubility and stability in solvent [3, 8]: good solubility and stability
SMILES: CN1CCN(C)CCN(C)CC1.CN1CCN(C)CCN(C)CC1.O.O.O.O.O=S(=O)([O-])[O-].[Mn+4].[Mn+4].[O-2].[O-2].[O-2] [MnTACN-SO4, [Mn^IV2(μ-O)3(Me3-TACN)2]SO4*4H2O]
tea-stain cleaning on tea cups ([4]; 14 g tablet + 82 mg dipropylene glycol containing 1.64 mg dissolved catalyst (Exp low)): 80 points
tea-stain cleaning on tea cups ([4]; 14 g tablet + 100 mg dipropylene glycol containing 2 mg dissolved catalyst (Exp high)): 85 points

solubility in water [2]: greater than 100 g/L
solubility in water ([2]; equated from g/L): > 10 wt %
solubility and stability in solvent ([3]; dipropylene glycol): dissolved
SMILES: CN1CCN(C)CCN(C)CC1.CN1CCN(C)CCN(C)CC1.Cc1ccc(S(=O)(=O)[O-])cc1.Cc1ccc(S(=O)(=O)[O-])cc1.[Mn+4].[Mn+4].[O-2].[O-2].[O-2] [MnTACN-Ts2, [Mn^IV2(μ-O)3(Me3-TACN)2](tosylate)2]

solubility in water [2]: greater than 1000 g/L
solubility and stability in solvent ([3]; dipropylene glycol): dissolved well
stability upon storage in solution ([3]; dipropylene glycol, room temperature for at least 7 months): very high stability
SMILES: CN1CCN(C)CCN(C)CC1.CN1CCN(C)CCN(C)CC1.O.O.O.O.O=C([O-])c1ccccc1.O=C([O-])c1ccccc1.[Mn+4].[Mn+4].[O-2].[O-2].[O-2] [MnTACN-benzoate, [Mn^IV2(μ-O)3(Me3-TACN)2](benzoate)2*4H2O]
